Source: ChEMBL document CHEMBL1129317, “Novel selective and partial agonists of 5-HT3 receptors. Part 1. Synthesis and biological evaluation of piperazinopyrrolothienopyrazines” (J Med Chem, 1996)

What was measured:
[1] = biological target: 5-hydroxytryptamine receptor 1D (Sus scrofa, UniProt P79400); assay: Binding affinity for 5-hydroxytryptamine 1D receptor
[2] = biological target: T1, 5-hydroxytryptamine receptor 1A (Homo sapiens, UniProt P08908); assay: Binding affinity for 5-hydroxytryptamine 1A receptor
T1 sequence (P08908 whole entry): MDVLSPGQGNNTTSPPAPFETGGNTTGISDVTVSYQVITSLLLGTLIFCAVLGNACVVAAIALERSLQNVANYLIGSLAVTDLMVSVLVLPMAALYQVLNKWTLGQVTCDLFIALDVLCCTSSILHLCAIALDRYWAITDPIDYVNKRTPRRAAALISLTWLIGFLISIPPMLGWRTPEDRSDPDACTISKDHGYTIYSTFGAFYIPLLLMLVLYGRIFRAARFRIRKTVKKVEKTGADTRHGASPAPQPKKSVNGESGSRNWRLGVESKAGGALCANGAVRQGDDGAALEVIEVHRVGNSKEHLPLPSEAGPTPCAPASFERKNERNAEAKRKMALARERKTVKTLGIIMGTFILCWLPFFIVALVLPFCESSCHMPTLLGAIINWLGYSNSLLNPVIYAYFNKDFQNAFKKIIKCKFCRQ

[3] = biological target: 5-hydroxytryptamine receptor 2A (Bos taurus, UniProt Q75Z89); assay: Binding affinity towards 5-hydroxytryptamine 2A receptor
5-hydroxytryptamine receptor 2A, sequence (Q75Z89 whole entry): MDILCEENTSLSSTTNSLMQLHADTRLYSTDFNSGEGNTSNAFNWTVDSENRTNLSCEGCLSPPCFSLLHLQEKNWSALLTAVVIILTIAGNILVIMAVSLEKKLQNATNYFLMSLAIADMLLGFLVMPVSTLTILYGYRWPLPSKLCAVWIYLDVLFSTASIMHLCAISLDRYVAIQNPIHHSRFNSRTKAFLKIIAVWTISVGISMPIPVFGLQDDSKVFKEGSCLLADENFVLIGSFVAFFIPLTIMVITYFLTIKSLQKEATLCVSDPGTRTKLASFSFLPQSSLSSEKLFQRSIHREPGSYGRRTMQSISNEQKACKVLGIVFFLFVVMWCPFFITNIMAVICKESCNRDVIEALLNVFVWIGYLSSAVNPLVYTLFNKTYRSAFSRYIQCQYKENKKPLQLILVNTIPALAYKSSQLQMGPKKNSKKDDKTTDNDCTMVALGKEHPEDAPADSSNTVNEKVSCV

[4] = biological target: T2, Serotonin 3 (5-HT3) receptor (Rattus norvegicus, UniProt P35563+Q9JJ16); assay: Binding affinity towards 5-hydroxytryptamine 3 receptor; assay type: protein-complex assay
T2 sequence (P35563 whole entry): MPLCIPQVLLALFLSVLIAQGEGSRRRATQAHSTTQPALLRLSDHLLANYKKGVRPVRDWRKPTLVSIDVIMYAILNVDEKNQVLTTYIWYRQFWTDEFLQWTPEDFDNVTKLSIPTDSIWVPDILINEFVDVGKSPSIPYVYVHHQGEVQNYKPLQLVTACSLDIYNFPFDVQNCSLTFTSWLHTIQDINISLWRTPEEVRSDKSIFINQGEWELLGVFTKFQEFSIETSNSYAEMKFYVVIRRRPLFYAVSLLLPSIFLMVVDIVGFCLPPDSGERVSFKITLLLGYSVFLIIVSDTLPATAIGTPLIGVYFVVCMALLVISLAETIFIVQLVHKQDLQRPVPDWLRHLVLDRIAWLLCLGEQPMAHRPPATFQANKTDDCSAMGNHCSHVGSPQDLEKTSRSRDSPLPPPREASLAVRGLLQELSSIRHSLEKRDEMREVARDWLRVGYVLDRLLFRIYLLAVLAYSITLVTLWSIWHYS
T2 sequence (Q9JJ16 whole entry): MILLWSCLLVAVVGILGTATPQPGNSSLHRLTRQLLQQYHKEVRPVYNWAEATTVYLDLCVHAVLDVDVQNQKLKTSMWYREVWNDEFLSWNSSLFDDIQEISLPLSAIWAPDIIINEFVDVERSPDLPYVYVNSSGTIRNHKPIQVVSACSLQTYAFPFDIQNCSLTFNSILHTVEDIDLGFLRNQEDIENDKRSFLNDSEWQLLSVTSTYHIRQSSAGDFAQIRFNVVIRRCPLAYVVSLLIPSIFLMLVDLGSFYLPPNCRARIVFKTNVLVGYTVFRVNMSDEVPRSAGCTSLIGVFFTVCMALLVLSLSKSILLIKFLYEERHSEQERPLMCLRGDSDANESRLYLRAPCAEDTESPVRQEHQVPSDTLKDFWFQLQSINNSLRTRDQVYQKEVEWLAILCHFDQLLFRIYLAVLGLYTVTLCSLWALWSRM

[5] = biological target: T3, 5-hydroxytryptamine receptor 2C (Homo sapiens, UniProt P28335); assay: Binding affinity towards 5-hydroxytryptamine 2C receptor
T3 sequence (P28335 whole entry): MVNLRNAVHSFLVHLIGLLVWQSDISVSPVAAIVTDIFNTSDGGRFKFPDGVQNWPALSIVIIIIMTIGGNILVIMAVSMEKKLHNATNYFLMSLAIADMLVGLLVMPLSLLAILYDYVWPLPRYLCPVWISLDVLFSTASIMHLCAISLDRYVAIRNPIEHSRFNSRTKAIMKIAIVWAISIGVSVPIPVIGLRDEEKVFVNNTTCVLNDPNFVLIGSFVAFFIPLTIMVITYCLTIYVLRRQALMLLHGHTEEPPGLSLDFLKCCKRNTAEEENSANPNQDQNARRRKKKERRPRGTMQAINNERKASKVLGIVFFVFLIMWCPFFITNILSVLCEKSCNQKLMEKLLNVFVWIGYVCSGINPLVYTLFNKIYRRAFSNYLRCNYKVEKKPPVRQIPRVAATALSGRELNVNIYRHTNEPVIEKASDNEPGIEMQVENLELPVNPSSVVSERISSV

[6] = biological target: 5-hydroxytryptamine receptor 1B (Rattus norvegicus, UniProt P28564); assay: Binding affinity for 5-hydroxytryptamine 1B receptor
5-hydroxytryptamine receptor 1B, sequence (P28564 whole entry): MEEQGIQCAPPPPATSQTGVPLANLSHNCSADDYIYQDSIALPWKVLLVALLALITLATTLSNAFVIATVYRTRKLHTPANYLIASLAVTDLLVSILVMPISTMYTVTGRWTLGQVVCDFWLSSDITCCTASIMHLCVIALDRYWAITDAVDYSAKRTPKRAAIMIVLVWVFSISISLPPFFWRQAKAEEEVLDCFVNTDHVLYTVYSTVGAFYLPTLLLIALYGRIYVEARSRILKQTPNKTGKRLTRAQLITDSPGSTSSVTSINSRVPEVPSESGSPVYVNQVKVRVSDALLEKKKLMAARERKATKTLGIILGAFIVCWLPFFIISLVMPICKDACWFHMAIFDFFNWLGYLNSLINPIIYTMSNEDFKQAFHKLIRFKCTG

5-hydroxytryptamine receptor 1D, sequence (P79400 whole entry): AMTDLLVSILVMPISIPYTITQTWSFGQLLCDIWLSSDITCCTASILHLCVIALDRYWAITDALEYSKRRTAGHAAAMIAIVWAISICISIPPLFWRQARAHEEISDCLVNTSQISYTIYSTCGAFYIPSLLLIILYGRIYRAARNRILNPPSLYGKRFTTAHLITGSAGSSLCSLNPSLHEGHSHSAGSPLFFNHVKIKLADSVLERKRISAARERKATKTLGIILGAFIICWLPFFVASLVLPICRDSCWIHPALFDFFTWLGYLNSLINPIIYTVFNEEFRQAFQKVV

IC50 [1] | IC50 [2] | IC50 [3] | IC50 [4] | IC50 [5] | IC50 [6] | SMILES
0.912 µM | 0.0525 µM | 2.34 µM | 0.24 µM | – | – | CN1CCN(c2nc3sccc3n3cccc23)CC1
57.5 µM | 12.6 µM | 832 µM | 74.1 µM | 5.89 µM | 7.41 µM | FC(F)(F)c1cccc(N2CCN(c3nc4sccc4n4cccc34)CC2)c1
> 100 µM | 457 µM | 112 µM | > 100 µM | > 100 µM | – | C1=CCN(c2nc3ccsc3n3cccc23)CC1
257 µM | 10.2 µM | 191 µM | 1.17 µM | 8.71 µM | 33.9 µM | Clc1ccc(CN2CCN(c3nc4sccc4n4cccc34)CC2)cc1Cl
3.09 µM | 0.661 µM | 7.41 µM | 0.0166 µM | 0.851 µM | 4.68 µM | Clc1ccc(CN2CCN(c3nc4ccsc4n4cccc34)CC2)c(Cl)c1
2.57 µM | 0.0617 µM | 0.933 µM | 0.0603 µM | 0.355 µM | 10.2 µM | c1cc2c(N3CCN(CC4CC4)CC3)nc3ccsc3n2c1
1.26 µM | 0.288 µM | 1.78 µM | 1.58 µM | 0.155 µM | – | FC(F)(F)c1cccc(N2CCN(c3nc4ccsc4n4cccc34)CC2)c1
35.5 µM | 17.8 µM | 87.1 µM | 2.95 µM | 1.07 µM | 19.1 µM | FC(F)(F)c1cccc(N2CCN(c3nc4scc(-c5ccccc5)c4n4cccc34)CC2)c1
60.3 µM | 15.5 µM | 13.8 µM | 21.4 µM | 2.19 µM | > 100 µM | CN1CCN(c2nc3sc(-c4ccccc4)cc3n3cccc23)CC1
20 µM | – | 24.5 µM | 0.00102 µM | 2.57 µM | 7.08 µM | c1cc2c(N3CCN(Cc4ccc5c(c4)OCO5)CC3)nc3sccc3n2c1
251 µM | 0.407 µM | 14.5 µM | 1.48 µM | 8.32 µM | > 100 µM | O=C(CN1CCN(c2nc3ccsc3n3cccc23)CC1)N1CCCC1
0.398 µM | 0.117 µM | 1.29 µM | 0.813 µM | 0.24 µM | 11.2 µM | CN1CCN(c2nc3ccsc3n3cccc23)CC1
> 100 µM | > 100 µM | 372 µM | 245 µM | 102 µM | 302 µM | Clc1ccc(N2CCN(c3nc4ccsc4n4cccc34)CC2)cc1
100 µM | 0.257 µM | 70.8 µM | 4.07 µM | 61.7 µM | 0.676 µM | CCOC(=O)CN1CCN(c2nc3ccsc3n3cccc23)CC1
93.3 µM | 32.4 µM | 39.8 µM | 20.9 µM | 41.7 µM | > 100 µM | c1cc2c(N3CCOCC3)nc3ccsc3n2c1
> 100 µM | > 100 µM | > 100 µM | > 100 µM | 214 µM | 1380 µM | FC(F)(F)c1cccc(N2CCN(c3nc4cc(-c5ccccc5)sc4n4cccc34)CC2)c1

IC50 [1] | IC50 [2] | IC50 [3] | IC50 [4] | IC50 [5] | IC50 [6] | SMILES
105 µM | 0.0832 µM | 0.851 µM | 0.2 µM | 0.708 µM | 0.646 µM | C(=C\c1ccccc1)/CN1CCN(c2nc3ccsc3n3cccc23)CC1
87.1 µM | 4.9 µM | 7.41 µM | 19.1 µM | 11.7 µM | 14.8 µM | CN1CCN(c2nc3cc(-c4ccccc4)sc3n3cccc23)CC1
0.123 µM | 0.0468 µM | 18.6 µM | 1.32 µM | – | 0.339 µM | CN1CCN(c2nc3cc(C(F)(F)F)ccc3n3cccc23)CC1
38 µM | 7.76 µM | 13.8 µM | 18.2 µM | 14.1 µM | 19.5 µM | Fc1ccc(CN2CCN(Cc3nc4ccsc4n4cccc34)CC2)cc1
> 100 µM | > 100 µM | > 100 µM | 1740 µM | 23.4 µM | > 100 µM | FC(F)(F)c1cccc(N2CCN(c3nc4sc(-c5ccccc5)cc4n4cccc34)CC2)c1
35.5 µM | – | 302 µM | 2.45 µM | 10 µM | > 100 µM | c1ccc(-c2cc3nc(N4CCNCC4)c4cccn4c3s2)cc1
> 100 µM | 204 µM | > 100 µM | 1.38 µM | 282 µM | > 100 µM | Clc1ccc(C(c2ccccc2)N2CCN(c3nc4ccsc4n4cccc34)CC2)cc1 (centres undefined)
537 µM | 389 µM | > 100 µM | 39.8 µM | 1000 µM | > 100 µM | c1ccc(CN2CCN(c3nc4sc(-c5ccccc5)cc4n4cccc34)CC2)cc1
525 µM | 126 µM | 174 µM | 3.63 µM | 155 µM | > 100 µM | Cc1sc2c(nc(N3CCN(Cc4ccccc4)CC3)c3cccn32)c1C
30.9 µM | 25.7 µM | 63.1 µM | 6.76 µM | 2.63 µM | 24 µM | c1ccc(CN2CCN(c3nc4scc(-c5ccccc5)c4n4cccc34)CC2)cc1
138 µM | 0.347 µM | 22.4 µM | 0.0214 µM | 7.41 µM | 14.5 µM | Fc1ccc(CN2CCN(c3nc4ccsc4n4cccc34)CC2)cc1
275 µM | 43.7 µM | 447 µM | 97.7 µM | 72.4 µM | 70.8 µM | Fc1ccc(N2CCN(c3nc4ccsc4n4cccc34)CC2)cc1
> 100 µM | 64.6 µM | > 100 µM | 72.4 µM | 57.5 µM | > 100 µM | c1cc2c(N3CCCCC3)nc3ccsc3n2c1
0.135 µM | 0.0933 µM | 1.07 µM | 0.0603 µM | 0.347 µM | 1.1 µM | CCCN1CCN(c2nc3ccsc3n3cccc23)CC1
200 µM | 0.0724 µM | 5.13 µM | 269 µM | 1.07 µM | 18.6 µM | FC(F)(F)c1ccccc1CCN1CCN(c2nc3ccsc3n3cccc23)CC1
513 µM | 33.9 µM | 123 µM | 204 µM | > 100 µM | – | CCOC(=O)N1CCN(c2nc3ccsc3n3cccc23)CC1

SMILES | IC50 [1] | IC50 [2] | IC50 [3] | IC50 [4] | IC50 [5] | IC50 [6]
c1ccc(N2CCN(c3nc4ccsc4n4cccc34)CC2)cc1 | > 100 µM | > 100 µM | > 100 µM | > 100 µM | > 100 µM | –
c1ccc(C2CCN(c3nc4ccsc4n4cccc34)CC2)cc1 | > 100 µM | > 100 µM | > 100 µM | > 100 µM | > 100 µM | > 100 µM
c1ccc2nc(N3CCNCC3)ccc2c1 [QUIPAZINE] | 3.72 µM | – | 3.47 µM | – | 0.0617 µM | 7.08 µM
